Paper PMC9862819, “Structural Characterization of Murine Phosphodiesterase 5 Isoforms and Involvement of Cysteine Residues in Supramolecular Assembly” (International Journal of Molecular Sciences, 2023)

Columns and labels:
MmPDE5A3 [1] = target: T1, MmPDE5A3 (Mus musculus, UniProt Q8CG03); assay: [3H]cGMP hydrolysis assay; also spectrophotometric thiol titration and native PAGE; assay type: biochemical; design: gene Pde5a; full-length MmPDE5A3 isoform (823 amino acids common to the three isoforms), 3XFLAG tag
MmPDE5A3 [2] = target: T1, MmPDE5A3; design: gene Pde5a
MmPDE5A3 [3] = target: T1, MmPDE5A3; assay: native PAGE conformational shift; [3H]cGMP hydrolysis; added protection of Cys with sildenafil; assay type: binding; design: gene Pde5a; full-length MmPDE5A3 isoform (823 amino acids common to the three isoforms), 3XFLAG tag

O=C(O)c1cc(SSc2ccc([N+](=O)[O-])c(C(=O)O)c2)ccc1[N+](=O)[O-] [DTNB, 5,5-dithio-bis-(2-nitrobenzoic acid)]
IC50 (MmPDE5A3 [1]): ~30 µM

CCCc1nn(C)c2c(=O)[nH]c(-c3cc(S(=O)(=O)N4CCN(C)CC4)ccc3OCC)nc12 [Sild, sildenafil]
native PAGE conformational shift and protection of Cys from DTNB titration (MmPDE5A3 [2]): the reactive Cys were close to the active site and were shielded by the inhibitor

Nc1nc2c(ncn2[C@@H]2O[C@@H]3COP(=O)(O)O[C@H]3[C@H]2O)c(=O)[nH]1 [cGMP]
native PAGE conformational shift; [3H]cGMP hydrolysis; added protection of Cys w (MmPDE5A3 [3]): the conformation of D3 was also the main outcome of the binding of the substrate and inhibitor (cGMP and sildenafil
